A short description of series [1]: refractive index (Na D-line) (dimensionless). As to conditions: 298.15 K; 101.33 kPa; Liquid; Standard Abbe refractometry.
The conditions of series [2]: 313.15 K, Liquid; for mass density: 101.33 kPa, Pycnometric method; for vapor or sublimation pressure: Closed cell (Static) method.

Numbers after ± are expanded uncertainties.

The term refractive index denotes the speed of light in vacuum divided by its phase velocity in the sample. As a reminder, the mass density is mass per unit of volume. As usually defined, the vapor or sublimation pressure is the equilibrium pressure above the liquid or solid. For `CC(=O)N(C)C` [N,N-dimethylethanamide], the refractive index in series [1] turned out to be 1.43556 ± 0.00075. For the same compound, in series [2], the mass density was found to be 922.4 ± 0.6 kg/m3 and the “vapor or sublimation pressure” value was 0.658 ± 0.01 kPa.
For `CCO` [ethanol] the same measures were 1.3592 ± 0.00075, 772.2 ± 0.5 kg/m3 and 17.89 ± 0.087 kPa.
On to `O` [water], for which the “vapor or sublimation pressure” value in series [2] is given as 7.375 ± 0.025 kPa.

For the origin of these results see the NIST ThermoML archive (doi:10.1016/j.jct.2005.08.001).
